pEC50: −log10 of the molar value. Read-outs that look alike come from different tables or passages of the source.
Experiments:
[1] = target: T1, human β3 adrenergic receptor (Homo sapiens, UniProt P13945); assay: Functional assay: cAMP production in CHO cells stably transfected with cloned β3-adrenergic receptor (LANCE TR-FRET); type: cell-based
T1 construct: expressed in transfected cells; host or cells: CHO cells, stably transfected
Description: cAMP production in response to ligand is measured according to Barton, et al. (1991, Agonist-induced desensitization of D2 dopamine receptors in human Y-79 retinoblastoma cells. Mal. Pharmacol. v3229:650-658) modified as follows. cAMP production is measured using a homogenous time-resolved fluorescence resonance energy transfer immunoassay (LANCE™, Perkin Elmer) according to the manufacture's instructions. Chinese hamster ovary (CHO) cells, stably transfected with the cloned β-adrenergic receptor (β1, β2 or β3) are harvested after 3 days of subculturing. Harvesting of cells is done with Enzyme-free Dissociation. Media (Specialty Media). Cells are then counted and resuspended in assay buffer (Hank's Balanced salt solution supplemented with 5 mM HEPES, 0.1% BSA) containing a phosphodiesterase inhibitor (IBMX, 0.6 mM). The reaction is initiated by mixing 6,000 cells in 6 μL with 6 μL Alexa Fluor labeled cAMP antibody (LANCE™ kit) which is then added to an assay well containing 12 μL of compound (diluted in assay buffer to 2× final concentration). The reaction proceeds for 30 min at room temperature and is terminated by the addition of 24 μL detection buffer (LANCE™ kit). The assay plate is then incubated for 1 h at room temperature and time-resolved fluorescence measured on a Perkin Elmer Envision reader or equivalent. The unknown cAMP level is determined by comparing fluorescence levels to a cAMP standard curve.
The non-selective, full agonist β-adrenergic ligand isoproterenol is used at all three receptors to determine maximal stimulation. The human β3 adrenergic receptor (AR) selective ligand (S)—N-[4-[2-[[2-hydroxy-3-(4-hydroxyphenoxy)propyl]amino]ethyl]-phenyl]-4-iodobenzenesulfonamide is used as a control in all assays. Isoproterenol is titrated at a final concentration in the assay of 10^-10 M to 10-5 and the selective ligand (S)—N-[4-[2-[[2-hydroxy-3-(4-hydroxyphenoxy)propyl]amino]ethyl]phenyl]-4-iodobenzenesulfonamide is titrated at the β3 receptor at concentration of 10^-10 M to 10^-5 M. Unknown ligands are titrated at all 3β-adrenergic receptor subtypes at a final concentration in the assay of 10^-10 M to 10^-5 M to determine the EC50. The EC50 is defined as the concentration of compound that gives 50% activation of its own maximum. Data are analyzed using Microsoft Excel and Graphpad Prism or an internally developed data analysis software package.

[2] = target: T2, β3AR (Rattus norvegicus, UniProt P26255); settings: rats, intravenous administration, cited from earlier work
T2 construct: host or cells: live rats (in vivo, bladder)

[3] = Table 2, read-out: Human β3 agonist functional activity
[4] = Table 3, read-out: Human β3 agonist functional activity
[5] = Table 1, read-out: Human β3 agonist functional activity

T2 sequence (P26255 whole entry): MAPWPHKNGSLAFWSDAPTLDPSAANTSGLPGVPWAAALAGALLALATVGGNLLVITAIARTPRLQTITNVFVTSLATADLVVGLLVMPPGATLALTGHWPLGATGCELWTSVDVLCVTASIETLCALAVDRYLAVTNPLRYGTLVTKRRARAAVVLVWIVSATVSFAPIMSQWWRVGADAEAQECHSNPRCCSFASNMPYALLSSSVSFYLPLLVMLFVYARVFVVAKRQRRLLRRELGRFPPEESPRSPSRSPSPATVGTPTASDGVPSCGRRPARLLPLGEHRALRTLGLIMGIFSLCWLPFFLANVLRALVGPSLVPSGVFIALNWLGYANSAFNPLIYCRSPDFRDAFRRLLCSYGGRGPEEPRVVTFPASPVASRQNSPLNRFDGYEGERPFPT
T1 sequence (P13945 whole entry): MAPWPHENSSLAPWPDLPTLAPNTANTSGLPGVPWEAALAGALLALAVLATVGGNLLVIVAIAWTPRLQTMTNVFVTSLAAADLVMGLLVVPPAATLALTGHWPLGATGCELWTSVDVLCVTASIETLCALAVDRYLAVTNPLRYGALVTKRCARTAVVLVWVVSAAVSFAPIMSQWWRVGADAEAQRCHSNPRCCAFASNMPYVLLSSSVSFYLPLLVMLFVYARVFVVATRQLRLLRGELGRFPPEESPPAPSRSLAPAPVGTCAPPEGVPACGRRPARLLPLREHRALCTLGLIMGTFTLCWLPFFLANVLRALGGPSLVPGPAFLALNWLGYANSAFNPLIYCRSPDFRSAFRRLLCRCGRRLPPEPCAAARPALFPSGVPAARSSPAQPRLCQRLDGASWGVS

| Compound | pEC50 [1, 5] | other results |
| --- | --- | --- |
| Cc1nc2c(s1)CCC2c1nc2ccc(C[C@@H]3CC[C@H]([C@H](O)c4ccccc4)N3)cc2n1C (single isomer, unassigned) [Example 43] | – | pEC50 [1, 3]: 5.52 to 6.00 |
| Cc1nc2c(s1)CCC2c1nc2ccc(C[C@@H]3CC[C@H]([C@H](O)c4ccccc4)N3)cc2n1C (single isomer, unassigned) [Example 44] | – | pEC50 [1, 3]: 5.52 to 6.00 |
| Cc1nc2c(s1)CCC2c1nc2cc(C[C@@H]3CC[C@H]([C@H](O)c4ccccc4)N3)ccc2n1C (single isomer, unassigned) [Example 45] | – | pEC50 [1, 4]: 6.00 to 7.00 |
| Cc1nc2c(s1)CCC2c1nc2cc(C[C@@H]3CC[C@H]([C@H](O)c4ccccc4)N3)ccc2n1C (single isomer, unassigned) [Example 46] | – | pEC50 [1, 4]: 5.52 to 6.00 |
| C[C@H](Cc1ccc2c(c1)OC(C(=O)[O-])(C(=O)[O-])O2)NC[C@H](O)c1cccc(Cl)c1.[Na+].[Na+] [CL316243] | – | bladder capacity ([2]; cystometric studies): increases bladder capacity; micturition interval ([2]; cystometric studies): prolongation of micturition interval; residual urine volume ([2]; cystometric studies): without increasing residual urine volume; bladder pressure [2]: reduces bladder pressure |
| C[C@@H](c1nc2ccc(CC3CC[C@H]([C@H](O)c4ccccc4)N3)cc2[nH]1)n1cccnc1=O (stereo partly drawn) [Example 1, 1-{(1S)-[6-({(2S,5R)-5-[(R)-Hydroxy(phenyl)methyl]pyrrolidin-2-yl}methyl)-1H-benzimidazol-2-yl]ethyl}pyrimidin-2(1H)-one] | 7.00 to 7.96 | – |
| CCc1nc2ccccc2n1CCc1nc2ccc(C[C@@H]3CC[C@H]([C@H](O)c4ccccc4)N3)cc2[nH]1 [Example 5] | 6.00 to 7.00 | – |
| OC(c1ccccc1)C1CCC(Cc2ccc3nc(CCCn4cccn4)[nH]c3c2)N1 (centres unmarked) [Example 6] | 6.00 to 7.00 | – |
| O[C@H](c1ccccc1)[C@H]1CC[C@@H](Cc2ccc3nc(CCn4ncc5ccccc54)[nH]c3c2)N1 [Example 7] | 7.00 to 7.96 | – |
| Cc1nc(Cc2nc3ccc(C[C@@H]4CC[C@H]([C@H](O)c5ccccc5)N4)cc3[nH]2)cs1 [Example 8] | 6.00 to 7.00 | – |
| O[C@H](c1ccccc1)[C@H]1CC[C@@H](Cc2ccc3nc(CCn4ccnc4-c4ccccc4)[nH]c3c2)N1 [Example 10] | 6.00 to 7.00 | – |
| OC(c1ccccc1)C1CCC(Cc2ccc3nc(CCc4cnn(-c5ccccc5)c4)[nH]c3c2)N1 (centres unmarked) [Example 11] | 6.00 to 7.00 | – |
| Cc1nn(-c2ccccc2)c(C)c1CCc1nc2ccc(C[C@@H]3CC[C@H]([C@H](O)c4ccccc4)N3)cc2[nH]1 [Example 12] | 6.00 to 7.00 | – |
| OC(c1ccccc1)C1CCC(Cc2ccc3nc(CCn4cnc5ccccc54)[nH]c3c2)N1 (centres unmarked) [Example 13] | 6.00 to 7.00 | – |
| Cc1cc2ncn(CCc3nc4ccc(C[C@@H]5CC[C@H]([C@H](O)c6ccccc6)N5)cc4[nH]3)c2cc1C [Example 14] | 6.00 to 7.00 | – |
| O[C@H](c1ccccc1)[C@H]1CC[C@@H](Cc2ccc3nc(CCn4cncn4)[nH]c3c2)N1 [Example 15] | 6.00 to 7.00 | – |
| O[C@H](c1ccccc1)[C@H]1CC[C@@H](Cc2ccc3nc(C4CCc5ccnn54)[nH]c3c2)N1 (some centres unmarked) [Example 16] | 6.00 to 7.00 | – |
| O=C1c2ccccc2C(=O)N1Cc1nc2ccc(C[C@@H]3CC[C@H]([C@H](O)c4ccccc4)N3)cc2[nH]1 [Example 17] | 6.00 to 7.00 | – |
| O=c1ccncn1Cc1nc2ccc(C[C@@H]3CC[C@H]([C@H](O)c4ccccc4)N3)cc2[nH]1 [Example 19] | 6.00 to 7.00 | – |
| Cc1nc(Cc2nc3ccc(C[C@@H]4CC[C@H]([C@H](O)c5ccccc5)N4)cc3[nH]2)c(C)s1 [Example 20] | 6.00 to 7.00 | – |
| Cc1nc2c(s1)CCC2c1nc2ccc(C[C@@H]3CC[C@H]([C@H](O)c4ccccc4)N3)cc2[nH]1 (some centres unmarked) [Example 21] | 7.00 to 7.96 | – |
| O[C@H](c1ccccc1)[C@H]1CC[C@@H](Cc2ccc3nc(C4CCc5scnc54)[nH]c3c2)N1 (some centres unmarked) [Example 24] | 7.00 to 7.96 | – |
| OC(c1cccnc1)C1CCC(Cc2ccc3nc(C4CCc5scnc54)[nH]c3c2)N1 (centres unmarked) [Example 26] | 6.00 to 7.00 | – |
| CC(c1cscn1)c1nc2ccc(C[C@@H]3CC[C@H]([C@H](O)c4cccnc4)N3)cc2[nH]1 (some centres unmarked) [Example 27] | 6.00 to 7.00 | – |
| C[C@@H](c1nc2ccc(C[C@@H]3CC[C@H]([C@H](O)c4cccnc4)N3)cc2[nH]1)n1cccnc1=O [Example 28] | 6.00 to 7.00 | – |
| Cc1nc2c(s1)CCC2c1nc2ccc(C[C@@H]3CC[C@H]([C@H](O)c4cccnc4)N3)cc2[nH]1 (some centres unmarked) [Example 29] | 6.00 to 7.00 | – |
| O=C1c2ccccc2C(=O)N1Cc1nc2ccc(C[C@@H]3CC[C@H]([C@H](O)c4cccnc4)N3)cc2[nH]1 [Example 31] | 6.00 to 7.00 | – |
| CS(=O)(=O)c1ccccc1-c1nc2ccc(C[C@@H]3CC[C@H]([C@H](O)c4cccnc4)N3)cc2[nH]1 [Example 32] | 7.00 to 7.96 | – |
| CS(=O)(=O)c1ccc(-c2nc3ccc(C[C@@H]4CC[C@H]([C@H](O)c5cccnc5)N4)cc3[nH]2)cc1 [Example 33] | 6.00 to 7.00 | – |
| CS(=O)(=O)c1cccc(-c2nc3ccc(C[C@@H]4CC[C@H]([C@H](O)c5cccnc5)N4)cc3[nH]2)c1 [Example 34] | 7.00 to 7.96 | – |

More lines, main results first:

| pEC50 [1, 5] | Compound | other results |
| --- | --- | --- |
| 6.00 to 7.00 | O=C(O)c1ccccc1-c1nc2ccc(C[C@@H]3CC[C@H]([C@H](O)c4cccnc4)N3)cc2[nH]1 [Example 35] | – |
| 6.00 to 7.00 | O=C(O)c1cccc(-c2nc3ccc(C[C@@H]4CC[C@H]([C@H](O)c5cccnc5)N4)cc3[nH]2)c1 [Example 36] | – |
| 7.00 to 7.96 | O=C(O)c1ccc(-c2nc3ccc(C[C@@H]4CC[C@H]([C@H](O)c5cccnc5)N4)cc3[nH]2)cc1 [Example 37] | – |
| 6.00 to 7.00 | O[C@H](c1cccnc1)[C@H]1CC[C@@H](Cc2ccc3nc(-c4c(F)cccc4F)[nH]c3c2)N1 [Example 38] | – |
| 7.00 to 7.96 | OC(c1cccnc1)C1CCC(Cc2ccc3nc(-c4ccccc4C(F)(F)F)[nH]c3c2)N1 (centres unmarked) [Example 39] | – |
| 5.52 to 6.00 | Oc1cccc(-c2nc3ccc(C[C@@H]4CC[C@H]([C@H](O)c5cccnc5)N4)cc3[nH]2)n1 [Example 40] | – |
| 6.00 to 7.00 | O[C@H](c1cccnc1)[C@H]1CC[C@@H](Cc2ccc3nc(-c4ccccc4-c4ncc[nH]4)[nH]c3c2)N1 [Example 41] | – |
| 6.00 to 7.00 | O[C@H](c1cccnc1)[C@H]1CC[C@@H](Cc2ccc3nc(C4CCc5ccnn54)[nH]c3c2)N1 (some centres unmarked) [Example 42] | – |

Source: US8748433B2, “β3 adrenergic receptor agonists” (Merck Sharp & Dohme Corp., priority 2010, dated 2014)
